According to patent US20250275539A1, “APYRASE INHIBITORS” (Texas Crop Science, Inc., priority 2024, published 2025):

Each compound was assayed on apyrase (assay: Apyrase inhibition assay (screen for apyrase inhibitors, phosphate release read at 630 nm)). Settings: inhibitor conc at 1 mM (10 μl added), 3 mM ATP, pH 6.5, room temperature 1 hr.
Format: biochemical
Protocol: Apyrase inhibitors useful as enhancers of pesticidal activity are assessed using an in vitro assay. The method of Windsor, Bio Techniques 33:1024-1030 (November 2002) was used as follows
• 96 well plates were used for the assay: (Greiner bio-one: REF-655901-96 well, PS, F-bottom, Clear, Non-binding)
• Reaction Buffer: 60 mM Hepes; 3 mM MgCl2, 3 mM CaCl2) and 3 mM ATP (pH 6.5) • Development Buffer A: 2% aqueous ammonium molybdate • Development Buffer B: 11% ascorbic acid in 37.5% TCA in water • Stop buffer C: 2% trisodium citrate in 2% acetic acid solution in water
• Add 100 μl of reaction buffer to each well. • Add 10 μl of DMSO (control) or inhibitor/compound or compounds such as N1915 or orthovanadate to each well. (use inhibitor conc at 1 mM; orthovanadate at 2 mM and N1915 at 1 mM) • Add 10 μl of apyrase (concentration based on optimization—Dilute 1 U/μl enzyme to different concentrations such as 0.1 U, 0.05 U, 0.0025, 0.001 U, 0.0005 U—to find a good range) • Incubate plate at room temperature for 1 hr • Mix development buffer A and B in the ratio of 1:1.5 (just before use). • Add 50 μl of A: B mix in each well (incubate for 2 mins) • Add 50 μl of C in each well • Measure/Read Absorbance of plate @630 nm
Inhibitory data for the apyrase assay described above are provided for selected compounds in Table 3. D is inhibition of 0% to 10%, C is inhibition from 10% to 20%, B is inhibition from 20% to 30%, and A is inhibition above 30%. Blank entries signify compounds that were not tested.

| Inhibition | Compound |
| --- | --- |
| C (C is inhibition from 10% to 20%) | CCCc1ccc(S(=O)(=O)Nc2ccc(S(=O)(=O)N=C3CCCCCN3)cc2)cc1 [Compound A-52, N-(azepan-2-ylidene)-4-((4-propylphenyl)sulfonamido) benzenesulfonamide] |
| D (D is inhibition of 0% to 10%) | CCCc1ccc(S(=O)(=O)Nc2c(F)cc(F)cc2Br)cc1 [Compound A-51, N-(2-bromo-4,6-difluorophenyl)-4-propylbenzenesulfonamide] |
| A (A is inhibition above 30%) | CCCc1ccc(S(=O)(=O)Nc2ccc(CC(=O)O)cc2)cc1 [Compound A-46, 2-(4-((4-propylphenyl)sulfonamido)phenyl)acetic acid] |
| D (D is inhibition of 0% to 10%) | Cc1cccc(NS(=O)(=O)c2ccc(S(=O)(=O)N3CCCC3)cc2)c1 [Compound A-60, 4-(pyrrolidin-1-ylsulfonyl)-N-(m-tolyl)benzenesulfonamide] |
| C (C is inhibition from 10% to 20%) | CCCc1ccc(S(=O)(=O)Nc2cccc(S(N)(=O)=O)c2)cc1 [Compound A-72, 4-propyl-N-(3-sulfamoylphenyl)benzene-sulfonamide] |
| C (C is inhibition from 10% to 20%) | CCCc1ccc(S(=O)(=O)Nc2cc(Cl)ccc2Sc2nncn2C)cc1 [Compound A-67, N-(5-chloro-2-((4-methyl-4H-1,2,4-triazol-3-yl)thio)phenyl)-4-propylbenzenesulfonamide] |
| D (D is inhibition of 0% to 10%) | CCCc1ccc(S(=O)(=O)Nc2ccccc2-n2cc(C(=O)OC)nn2)cc1 [Compound A-39, methyl 1-(2-((4-propylphenyl)sulfonamido)phenyl)-1H-1,2,3-triazole-4-carboxylate] |
| B (B is inhibition from 20% to 30%) | Cc1cccc(NS(=O)(=O)c2ccc(OCC(=O)O)cc2)c1 [Compound A-101, 2-(4-(N-(m-tolyl)sulfamoyl)phenoxy) acedtic acid] |
| B (B is inhibition from 20% to 30%) | Cc1cccc(NS(=O)(=O)c2ccc(C(=O)O)cc2)c1 [Compound A-65, 4-(N-(m-tolyl)sulfamoyl)benzoic acid] |
| A (A is inhibition above 30%) | O=S(=O)(NCc1ccc2c(c1)OCO2)c1ccc(-c2ccccc2)cc1 [Compound A-36, N-(benzo[d][1,3]dioxol-5-ylmethyl)-[1,1′-biphenyl]-4-sulfonamide] |
| D (D is inhibition of 0% to 10%) | CCCc1ccc(S(=O)(=O)Nc2ccccc2C(N)=O)cc1 [Compound A-86, 2-((4-propylphenyl)sulfonamido) benzamide] |
| A (A is inhibition above 30%) | CCCc1ccc(S(=O)(=O)Nc2cc(S(=O)(=O)N3CCCCC3)ccc2C)cc1 [Compound A-90, N-(2-methyl-5-(piperidin-1-ylsulfonyl)phenyl)-4-propylbenzenesulfonamide] |
| D (D is inhibition of 0% to 10%) | CCCc1ccc(S(=O)(=O)Nc2cccc(C(N)=O)c2)cc1 [Compound A-84, 3-((4-propylphenyl)sulfonamido) benzamide] |
| D (D is inhibition of 0% to 10%) | O=S(=O)(c1ccc(-c2ccccc2)cc1)N1CCc2ccccc21 [Compound A-114] |
| D (D is inhibition of 0% to 10%) | CCCc1ccc(S(=O)(=O)Nc2ccc(C(=O)N(CC)CC)cc2)cc1 [Compound A-78, N,N-diethyl-4-((4-propylphenyl)sulfonamido) benzamide] |
| B (B is inhibition from 20% to 30%) | CCCc1ccc(S(=O)(=O)Nc2ccc(O)c(C(=O)O)c2)cc1 [Compound A-26, 2-hydroxy-5-((4-propylphenyl)sulfonamido) benzoic acid] |
| D (D is inhibition of 0% to 10%) | O=S(=O)(c1ccc(-c2ccccc2)cc1)N1CCCSCC1 [Compound A-106, 4-([1,1′-biphenyl]-4-ylsulfonyl)-1,4-thiazepane] |
| D (D is inhibition of 0% to 10%) | CCN1CCCC(NS(=O)(=O)c2ccc(-c3ccccc3)cc2)C1 (stereo not drawn) [Compound A-117, N-(1-ethylpiperidin-3-yl)-[1,1′-biphenyl]-4-sulfonamide] |
| D (D is inhibition of 0% to 10%) | CCCc1ccc(S(=O)(=O)Nc2ccccc2Br)cc1 [Compound A-55, N-(2-bromophenyl)-4-propylbenzenesulfonamide] |
| D (D is inhibition of 0% to 10%) | Cc1cccc(NS(=O)(=O)c2ccc(F)cc2)c1 [Compound A-58, 4-fluoro-N-(m-tolyl)benzenesulfonamide] |

| Inhibition | Compound |
| --- | --- |
| D (D is inhibition of 0% to 10%) | CCCc1ccc(S(=O)(=O)Nc2ccc3[nH]ncc3c2)cc1 [Compound A-69, N-(1H-indazol-5-yl)-4-propylbenzenesulfonamide] |
| C (C is inhibition from 10% to 20%) | CCCc1ccc(S(=O)(=O)Nc2cc(OC)c(OC)cc2C(=O)O)cc1 [Compound A-45, 4,5-dimethoxy-2-((4-propylphenyl)sulfonamido) benzoic acid] |
| C (C is inhibition from 10% to 20%) | COC(=O)c1ccc(S(=O)(=O)Nc2cccc(C)c2)cc1 [Compound A-12, methyl 4-(N-(m-tolyl)sulfamoyl)benzoate] |
| B (B is inhibition from 20% to 30%) | CCCc1ccc(S(=O)(=O)Nc2cc(Cl)ccc2N2CCOCC2)cc1 [Compound A-47, N-(5-chloro-2-morpholinophenyl)-4-propylbenzenesulfonamide] |
| D (D is inhibition of 0% to 10%) | CCCc1ccc(S(=O)(=O)Nc2ccc(-c3ccnc(C)n3)cc2)cc1 [Compound A-40, N-(4-(2-methylpyrimidin-4-yl)phenyl)-4-propylbenzenesulfonamide] |
| D (D is inhibition of 0% to 10%) | CCCc1ccc(S(=O)(=O)Nc2cc(C(=O)OC)ccc2S(N)(=O)=O)cc1 [Compound A-25, methyl 3-((4-propylphenyl)sulfonamido)-4-sulfamoylbenzoate] |
| C (C is inhibition from 10% to 20%) | CCCc1ccc(S(=O)(=O)Nc2cccc([N+](=O)[O-])c2)cc1 [Compound A-70, N-(3-nitrophenyl)-4-propylbenzenesulfonamide] |
| D (D is inhibition of 0% to 10%) | CCCc1ccc(S(=O)(=O)Nc2ccc(S(=O)(=O)Nc3nccs3)cc2)cc1 [Compound A-85, 4-propyl-N-(4-(N-(thiazol-2-yl)sulfamoyl)phenyl)benzene-sulfonamide] |
| D (D is inhibition of 0% to 10%) | CCCc1ccc(S(=O)(=O)Nc2ccc(C)c(S(N)(=O)=O)c2)cc1 [Compound A-104, N-(4-methyl-3-sulfamoylphenyl)-4-propylbenzenesulfonamide] |
| D (D is inhibition of 0% to 10%) | CCCc1ccc(S(=O)(=O)Nc2ccccc2Cn2cncn2)cc1 [Compound A-113, N-(2-((1H-1,2,4-triazol-1-yl)methyl)phenyl)-4-propylbenzenesulfonamide] |
| C (C is inhibition from 10% to 20%) | N#Cc1cnc(Cl)c(NS(=O)(=O)c2ccc(-c3ccccc3)cc2)c1 [Compound A-24, N-(2-chloro-5-cyanopyridin-3-yl)-[1,1′-biphenyl]-4-sulfonamide] |
| D (D is inhibition of 0% to 10%) | CCCc1ccc(S(=O)(=O)Nc2ccc(C(=O)O)cc2)cc1 [Compound A-44, 4-((4-propylphenyl)sulfonamido) benzoic acid] |
| D (D is inhibition of 0% to 10%) | O=S(=O)(c1ccc(-c2ccccc2)cc1)N1CCN(C2CCOCC2)CC1 [Compound A-11, 1-([1,1′-biphenyl]-4-ylsulfonyl)-4-(tetrahydro-2H-pyran-4-yl)piperazine] |
| C (C is inhibition from 10% to 20%) | CCCc1ccc(S(=O)(=O)Nc2c(F)cccc2F)cc1 [Compound A-87, N-(2,6-difluorophenyl)-4-propylbenzenesulfonamide] |
| D (D is inhibition of 0% to 10%) | CCCc1ccc(S(=O)(=O)Nc2ccc(S(=O)(=O)NC)cc2)cc1 [Compound A-80, N-methyl-4-((4-propylphenyl)sulfonamido) benzenesulfonamide] |
| D (D is inhibition of 0% to 10%) | Cl.NCCNS(=O)(=O)c1ccc(-c2ccccc2)cc1 [Compound A-15, N-(2-aminoethyl)-[1,1′-biphenyl]-4-sulfonamide hydrochloride] |
| A (A is inhibition above 30%) | CCCc1ccc(S(=O)(=O)Nc2ccccc2CC(=O)NC)cc1 [Compound A-41, N-methyl-2-(2-((4-propylphenyl)sulfonamido)phenyl)acetamide] |
| D (D is inhibition of 0% to 10%) | CCCC(=O)Nc1cccc(NS(=O)(=O)c2ccc(CCC)cc2)c1C [Compound A-118, N-(2-methyl-3-((4-propylphenyl)sulfonamido)phenyl)butyramide] |
| D (D is inhibition of 0% to 10%) | CCCc1ccc(S(=O)(=O)Nc2ccc(Cl)c(NC(C)=O)c2)cc1 [Compound A-119, N-(2-chloro-5-((4-propylphenyl)sulfonamido)phenyl)acetamide] |
